Source: US20170112857A1, “Extended Release Aspirin” (New Haven Pharmaceuticals, Inc., priority 2015, published 2017)
Read-outs that look alike come from different tables or passages of the source.

Assays:
platelet aggregation [1] = test: AA-, collagen- and ADP-induced light transmittance aggregometry (LTA); assay type: in vivo, human; conditions: Visit 2 trough
Protocol: High platelet reactivity has previously been implicated in incomplete inhibition during therapy with immediate release low-dose aspirin in patients with type II diabetes. The main study consisted of a run-in phase where subjects were administered 81 mg, everyday (“QD”), of immediate release acetylsalicylic acid (“IR ASA”) for 7-28 days. […] During Visits 2 and 5 subjects were subjected to the following tests: (1) platelet aggregation measurements (a) AA induced, (b) collagen induced, and (c) Multiplate®; […] During Visits 3 and 6 subjects were subjected to the following tests: (1) platelet aggregation measurements (a) AA induced, (b) collagen induced, and (c) Multiplate®; […] An increase in platelet aggregation ([…], or […] or […]) by more than 15% with either agonists (i.e., arachidonic acid or collagen) is considered a significant loss of aspirin effect over 24 hours. […] For this study the trough level data are from the following timepoints: (1) for 81 mg-the data at Visit 2; […]

platelet function = test: PlateletWorks platelet function at trough level; assay type: in vivo, human; conditions: Visit 2 trough
Protocol: The platelet function and aggregation measures at trough level were compared between the 81 mg immediate release ASA, 162.5 mg ER ASA (Durlaza®) and 325 mg ER ASA groups. For this study the trough level data are from the following timepoints: (1) for 81 mg—the data at Visit 2; (2) for 162.5 mg ER ASA (Durlaza®)—the data at Visit 3 pre-dose; and (3) for 325 mg ER ASA—the data at Visit 6 pre-dose.
This is unknown for patients with Diabetes and CVD or multiple risk factors.

[2] = Single dose ASA pharmacokinetics, IR ASA vs. ER ASA; assay type: in vivo, human; conditions: for AUC(0-t) / Cmax / Tmax: human, serum, oral, ASA
Protocol: Healthy adults were randomized to receive single doses of extended release ASA (“ER ASA”) at a dosage of 20 mg, 40 mg, 81 mg, 162.5 mg ER ASA (Durlaza®; New Haven Pharmaceuticals, Inc., North Haven, Conn.), or 325 mg, or immediate release ASA (“IR ASA”; aspirin powder USP; Letco Medical, Decatur, Ala.) at a dosage of 5 mg, 10 mg, 20 mg, 40 mg or 81 mg. […] For pharmacodynamic assessments, serum 11-dehydro-thromboxane (“TxB2”, a stable metabolite of thromboxane A2) levels were assessed using a validated enzyme immunoassay kit in serial blood samples collected 1 hour before dosing and at 0.5, 1, 2, 4, 8, 16, and 24 hours after drug administration.

[3] = test system: platelet aggregation / clot strength; test: Plateletmapping assay (TEG-6S analyzer); assay type: in vivo, human; conditions: Visit 2 trough
Protocol: The […]® assay ([…] is a registered trademark of Haemoscope Corp.) was conducted using a TEG®-6S analyzer (TEG is a registered trademark of Haemoscope Corp.) and results included parameters: […] For summary purposes the change in each parameter over 24 hours is calculated by subtracting the result at 24 hours from the result at 1 hour (i.e., absolute difference). […] For this study the trough level data are from the following timepoints: (1) for 81 mg-the data at Visit 2; […]

serum TxB2 = conditions: 75 mg IR ASA; Würtz et al.; cited from earlier work
platelet aggregation [4] = test: Multiplate platelet aggregation; assay type: in vivo, human; conditions: Visit 2 trough
Protocol: The main study consisted of a run-in phase where subjects were administered 81 mg, everyday (“QD”), of immediate release acetylsalicylic acid (“IR ASA”) for 7-28 days. […] During Visits 2 and 5 subjects were subjected to the following tests: (1) platelet aggregation measurements (a) AA induced, (b) collagen induced, and (c) Multiplate®; […] During Visits 3 and 6 subjects were subjected to the following tests: (1) platelet aggregation measurements (a) AA induced, (b) collagen induced, and (c) Multiplate®; […] For this study the trough level data are from the following timepoints: (1) for 81 mg—the data at Visit 2; […]

[5] = 81 mg IR, subjects compared with Visit 6 (sub-study)
[6] = single dose 5 mg, healthy adults
[7] = single dose 10 mg, healthy adults
[8] = single dose 20 mg, healthy adults
[9] = single dose 40 mg, healthy adults
[10] = single dose 81 mg, healthy adults

time required to reach the maximum concentration of ASA ([2]; all doses, single dose, healthy adults): 1 to 2 h
AUC(0-t) ([2]; 5 mg, single dose 5 mg, healthy adults, read-out: AUClast): 26.8 ng·h/mL
AUC(0-t) ([2]; 10 mg, single dose 10 mg, healthy adults, read-out: AUC0-8): 136 ng·h/mL
AUC(0-t) ([2]; 10 mg, single dose 10 mg, healthy adults, read-out: AUClast): 74.9 ng·h/mL
AUC(0-t) ([2]; 20 mg, single dose 20 mg, healthy adults, read-out: AUC0-8): 366 ng·h/mL
AUC(0-t) ([2]; 20 mg, single dose 20 mg, healthy adults, read-out: AUClast): 148 ng·h/mL
AUC(0-t) ([2]; 40 mg, single dose 40 mg, healthy adults, read-out: AUClast): 384 ng·h/mL
AUC(0-t) ([2]; 81 mg, single dose 81 mg, healthy adults, read-out: AUClast): 865 ng·h/mL
Cmax [2, 6]: 25.1 ng/mL
Tmax [2, 6]: 1.2 h
Cmax [2, 7]: 63.9 ng/mL
Tmax [2, 7]: 1.5 h
Cmax [2, 8]: 123 ng/mL
Tmax [2, 8]: 1.6 h
Cmax [2, 9]: 228 ng/mL
Tmax [2, 9]: 1.4 h
Cmax [2, 10]: 504 ng/mL
Tmax [2, 10]: 1.4 h
time period over which serum concentrations of ASA were maintained ([2]; single dose, 8 hours = sampling interval evaluated): 6 h
Structure (SMILES): CC(=O)Oc1ccccc1C(=O)O [IR ASA, acetylsalicylic acid]
LTA (%) 2 μg/mL Collagen (Final) (platelet aggregation [1]; 81 mg IR QD, main study): 54 ± 25%
LTA (%) 2 μg/mL Collagen (Max) (platelet aggregation [1]; 81 mg IR QD, main study): 57 ± 24%
LTA (%) 4 μg/mL Collagen (Final) (platelet aggregation [1]; 81 mg IR QD, main study): 65 ± 20%
LTA (%) 4 μg/mL Collagen (Max) (platelet aggregation [1]; 81 mg IR QD, main study): 66 ± 21%
LTA (%) 5 μM ADP (Final) (platelet aggregation [1]; 81 mg IR QD, main study): 50 ± 17%
LTA (%) 5 μM ADP (Max) (platelet aggregation [1]; 81 mg IR QD, main study): 59 ± 14%
LTA (%) 1 mM AA (Max) (platelet aggregation [1]; 81 mg IR QD, main study): 5 ± 12%
LTA (%) 2 mM AA (Final), first line so labelled (r8) (platelet aggregation [1]; 81 mg IR QD, main study): 5 ± 12%
LTA (%) 2 mM AA (Final), second line (r10) (platelet aggregation [1]; 81 mg IR QD, main study): 6 ± 13%
LTA (%) 2 mM AA (Max) (platelet aggregation [1]; 81 mg IR QD, main study): 7 ± 14%
LTA (%) 2 μg/mL Collagen (Final) (platelet aggregation [1]; [5]): 67 ± 12%
LTA (%) 2 μg/mL Collagen (Max) (platelet aggregation [1]; [5]): 68 ± 11%
LTA (%) 4 μg/mL Collagen (Final) (platelet aggregation [1]; [5]): 71 ± 13%
LTA (%) 4 μg/mL Collagen (Max) (platelet aggregation [1]; [5]): 73 ± 12%
LTA (%) 5 μM ADP (Final) (platelet aggregation [1]; [5]): 52 ± 14%
LTA (%) 5 μM ADP (Max) (platelet aggregation [1]; [5]): 61 ± 10%
LTA (%) 1 mM AA (Max) (platelet aggregation [1]; [5]): 4 ± 2%
LTA (%) 2 mM AA (Final), first line so labelled (r8) (platelet aggregation [1]; [5]): 3 ± 2%
LTA (%) 2 mM AA (Final), second line (r10) (platelet aggregation [1]; [5]): 3 ± 2%
LTA (%) 2 mM AA (Max) (platelet aggregation [1]; [5]): 4 ± 2%
PlateletWorks (% Agg) AA (platelet function; 81 mg IR QD, main study): 44 ± 19 % Agg
PlateletWorks (% Agg) ADP (platelet function; 81 mg IR QD, main study): 83 ± 15 % Agg
PlateletWorks (% Agg) Collagen (platelet function; 81 mg IR QD, main study): 47 ± 17 % Agg
PlateletWorks (% Agg) AA (platelet function; [5]): 44 ± 16 % Agg
PlateletWorks (% Agg) ADP (platelet function; [5]): 84 ± 10 % Agg
PlateletWorks (% Agg) Collagen (platelet function; [5]): 44 ± 12 % Agg
TEG PlateletMapping AA Aggregation ([3]; 81 mg IR QD, main study): 48 ± 29
TEG PlateletMapping ADP Aggregation ([3]; 81 mg IR QD, main study): 74 ± 25
TEG PlateletMapping MA (clot strength, mm) ([3]; 81 mg IR QD, main study): 65 ± 5 mm
TEG PlateletMapping MA-AA (mm) ([3]; 81 mg IR QD, main study): 39 ± 15 mm
TEG PlateletMapping MA-ADP (mm) ([3]; 81 mg IR QD, main study): 50 ± 18 mm
TEG PlateletMapping MA-fibrin (mm) ([3]; 81 mg IR QD, main study): 17 ± 11 mm
TEG PlateletMapping R (Clotting time, min) ([3]; 81 mg IR QD, main study): 6.8 ± 1.5 min
TEG PlateletMapping AA Aggregation [3, 5]: 75 ± 17
TEG PlateletMapping ADP Aggregation [3, 5]: 73 ± 21
TEG PlateletMapping MA (clot strength, mm) [3, 5]: 64 ± 3 mm
TEG PlateletMapping MA-AA (mm) [3, 5]: 54 ± 9 mm
TEG PlateletMapping MA-ADP (mm) [3, 5]: 52 ± 11 mm
TEG PlateletMapping MA-fibrin (mm) [3, 5]: 24 ± 12 mm
TEG PlateletMapping R (Clotting time, min) [3, 5]: 7.1 ± 0.7 min
serum TxB2 levels 24 hours after administration (serum TxB2): significant increase
MultiPlate (AU) AA (platelet aggregation [4]; 81 mg IR QD, main study): 17 ± 14 AU
MultiPlate (AU) ADP (platelet aggregation [4]; 81 mg IR QD, main study): 70 ± 24 AU
MultiPlate (AU) Collagen (platelet aggregation [4]; 81 mg IR QD, main study): 36 ± 17 AU
MultiPlate (AU) AA (platelet aggregation [4]; [5]): 24 ± 13 AU
MultiPlate (AU) ADP (platelet aggregation [4]; [5]): 77 ± 15 AU
MultiPlate (AU) Collagen (platelet aggregation [4]; [5]): 47 ± 18 AU
